Test results published in US20100247590A1, “Peptide-Based Systems For Delivery Of Cosmetic Agents” (JOHNSON & JOHNSON, priority 2009, published 2010).
Read-outs that look alike come from different tables or passages of the source. No end group written: not given here.

Experiments:
[1] = biotinylated peptide, streptavidin-HRP ELISA
Text: See, e.g., Example 3 of U.S. Patent Application Publication 2005/022683; hereby incorporated by reference. The MB50 provides an indication of the strength of the binding interaction or affinity of the components of the complex. […] For example, a peptide with a nanomolar (nM) MBso binds more tightly than a peptide with a micromolar (μM) MB50.
The purpose of this Example was to determine the affinity and specificity of the various hair-binding peptides for hair and pigment surfaces, measured as MB50 values, using an ELISA assay. Each of the short, linear peptides were originally identified using phage display. Unless otherwise indicated, the sequences provided in Example 2 include a C-terminal lysine residue that was biotinylated for detection purposes.
The MB50 measurements of biotinylated peptides binding to hair and to red iron oxide particles (Unipure Red from Sensient Technologies, Milwaukee, Wis.) were made using hair bundles. The hair samples were assembled in bundles consisting of 100 hairs about 1 cm long which were bundled together using narrow tape at one end. The hair bundles were incubated in SUPERBLOCK® blocking buffer (Pierce Chemical Co., Rockford, Ill.) for 1 hour at room temperature (˜22° C.), followed by 3 washes with TBST (TBS in 0.05% TWEEN® 20). Peptide binding buffer consisting of various concentrations of biotinylated peptide in TBST and 1 mg/mL BSA was added to the hair bundles and incubated for 1 hour at room temperature, followed by 6 TBST washes. Then, the streptavidin-horseradish peroxidase (HRP) conjugate (Pierce Chemical Co., Rockford, Ill.) was added to each well (1.0 μg per well), and incubated for 1 h at room temperature, followed by 6 times of washes with TBST. All hair bundles were transferred to new tubes and then the color development and the absorbance measurements were performed following standard protocols. The results were plotted as A450 versus the concentration of peptide using GraphPad Prism 4.0 (GraphPad Software, Inc., San Diego, Calif.).

streptavidin = streptavidin (Streptomyces avidinii, UniProt P22629); test: biochemical
Chain of streptavidin (P22629 25-183): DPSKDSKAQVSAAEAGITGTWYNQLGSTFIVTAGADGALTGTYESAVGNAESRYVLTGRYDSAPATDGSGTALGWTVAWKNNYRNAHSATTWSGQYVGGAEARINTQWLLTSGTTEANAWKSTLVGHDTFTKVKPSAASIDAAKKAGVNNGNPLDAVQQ

[2] = Visual color assessment of hair treated with peptide then streptavidin-coated iron oxide beads (sequential coloring); details: for perceptible color: Tables 17-19; for color intensity value (0-5, 0 no color deposition, 5 deepest color): Table 15, streptavidin-coated iron oxide beads 500 nm
Description: A biotinylated peptide and streptavidin-bead system was used to color hair. Sequential deposition was achieved by the following process.
Miniature hair tresses of approximately 1 inch in length containing 100% unpigmented hair were placed in an aqueous solution with 20 mM of peptides (in DI water or Tris Buffered Saline, pH 7.2, 5-150 mM ionic strength), for up to one hour at room temperature, derived in accordance with the methods set forth herein.
Hair samples were pretreated by exposing the hair to different peptides. The peptide created a layer on the hair. Hair samples with a peptide layer were rinsed with SLES solution to remove excess peptide. Next, the peptide-treated hair samples were incubated with streptavidin tagged iron oxide particles (Bangs Laboratories, Inc., Fishers, Ind.; Ademtech, Inc., Pessas, France) to allow the binding between biotin and streptavidin or between the streptavidin-binding domain in HC260 and streptavidin. Particles were purchased in dispersed form and were diluted to 0.025-1 wt % by adding a specified amount of either DI water or Coupling Buffer from Ademtech. Binding was permitted to take place during an incubation period for up to 24 hours at room temperature (˜22° C.) in the dark. Samples were continuously inverted end-over-end during the binding duration incubation period.
A color scale for the associated color intensity of iron oxide treated hair was defined as (0-5), where 0 is no color deposition and 5 is the deepest color.

[3] = 200 nm streptavidin-coated iron oxide beads; FIGS. 4A and 4B
Text: Humans can perceive color that is in about the 400 nm to 700 nm range. Ultraviolet light, i.e., 200-400 nm is not visible to humans.

[4] = fluorescence microscopy, FIG. 1
Description: A biotinylated peptide and streptavidin-coated bead system was used to illustrate the coupling of beads to hair in accordance with the methods and compositions of this invention.
A human hair sample was placed in an aqueous solution containing 20 mM of HCP5 dimer peptide (SEQ ID NO: 204) derived in accordance with the methods set forth herein. […] The HCP5 dimer was purchased from American Peptide Co., Inc. (Sunnyvale, Calif.) in both biotinylated (SEQ ID NO: 205) and non-biotinylated (SEQ ID NO: 204) versions (a single lysine residue was added to the C-terminus of the biotinylated version to facilitate biotin coupling).
Hair samples were pretreated by exposing the hair samples to either the biotinylated or the non-biotinylated peptide. Ten strands of natural dark brown hair (International Hair Importers), three inches in length, were pre-washed with 2% SLES for 30 seconds, then rinsed extensively with DI water. The hair strands were then immersed in 10 mL of a 5-20 micromolar solution of peptide for up to one hour. Ten hair samples were exposed to the biotinylated peptide and ten hair samples were exposed to non-biotinylated peptide. […]
After the incubation period ended, fluorescence microscopy was used to view the binding of 40 nm fluorescently-labeled streptavidin-coated polystyrene particles to hair.

[5] = Peptide-mediated binding of Co-NTA magnetic beads to gray hair, visual rating on magnet; set-up: species or system human; details: Table 11; peptide 0.2 μM
Description: Approximately 5 mg of 5 mm long hair strands (90% gray, human) were transferred to 2-mL microcentrifuge tubes. Approximately 1 mL of TBST0.1 buffer (25 mM Tris, 150 mM NaCl, pH7.2, with 0.1% TWEEN®-20) or the same buffer including varying concentrations of HC263 peptide was added to the hair.
The mixtures were shaken on a Nutator for one hour at room temperature (˜22° C.). The hairs were washed three times with TBST0.5 buffer (25 mM Tris, 150 mM NaCl, pH 7.2, with 0.5% TWEEN®-20). After washing, the hairs were resuspended in 900 μL Talon buffer (50 mM sodium phosphate, pH 8.0, 300 mM sodium chloride, 0.01% TWEEN®-20). A subset of hair/peptide conjugates were washed additionally one time with 1 mL of 0.25% SLES (Sodium Lauryl Ether Sulfate) for 5 min at room temperature on the Nutator, then washed two times with 1 mL TBST0.1 buffer. Approximately 0.2 mg of TALON™ beads (DYNABEADS® TALONT™, Invitrogen, Catalog#101.01D) were washed twice with TALON™ buffer on the DYNAL® MPC™ magnet and added to each reaction in 100 μL TALON™ buffer. […]
Beads binding to the hair were expected to co-migrate on the sides of the tubes once applied to the magnet. The strength of binding was visually assessed and rated on a scale of 0 (little or no observed binding) to 5 (highest amount of observed binding). […]

[6] = Table 17, 200 nm particles, initial, before washing with water
[7] = Table 18, 200 nm particles, after washing with water
[8] = Table 18, 500 nm particles, after washing with water
[9] = Table 19, 200 nm particles, after 0.25% SLES wash

HINKTNPHQGNHHSEKTQRQK-Biotin [MEA4] showed an MB50 ([1]; substrate 90% gray hair) of 0.061 µM and an MB50 ([1]; substrate Unipure Red particle) of 8.7 µM.

Work on MLSENWLTNHPQN [SB33N] yielded a Kd (streptavidin) of roughly 100 µM.

For HCP5-GGSGPGSGG-HCP5-K [(HCP5)2-biotin], the perceptible color ([2]; 200 nm beads) was “did not exhibited perceptible color”, the perceptible color ([2]; 500 nm beads) was “exhibited perceptible color” and the “color intensity value (0-5, 0 no color deposition, 5 deepest color)” value [2] was 4. For the same substance, the “color measurement (0-5 color scale)” value [2, 6] was 0, the “color measurement (0-5 color scale)” value [2, 7] was 0 and the “color measurement (0-5 color scale)” value [2, 8] was 3. The “color measurement (0-5 color scale)” value [2, 9] was 0, the “deposition of beads on hair” value [3] was 200 nm beads were deposited on the hair and the “binding of 40 nm fluorescently-labeled streptavidin-coated polystyrene particles to hair” value [4] was “bound the particles to hair”.

THSTHNHGSPRHTNADAGNPK-Biotin [HCP1] showed an MB50 ([1]; substrate 90% gray hair) of 0.044 µM and an MB50 ([1]; substrate Unipure Red particle) of 9.8 µM.

Substance AQSQLPDKHSGLHERAPQRYK-Biotin [Hair2] has an MB50 ([1]; substrate 90% gray hair) of 0.25 µM and an MB50 ([1]; substrate Unipure Red particle) of 6.8 µM.

For “GSDPG-Gray3-GGG-Gray3-GGGGSGGGGSG-HHHHHH (GSDPGHDHKNQKETHQRHAAGGGHDHKNQKETHQRHAAGGGGSGGGGSGHHHHHH) [HC214]”, the “Strength of binding (5 highest, 0 lowest)” value [5] was 0.

In the case of HCP5-GGSGPGSGG-HCP5 [(HCP5)2], the “color intensity value (0-5, 0 no color deposition, 5 deepest color)” value [2] is reported as 0, the “color scale score (0-5)” value ([2]; Table 16, streptavidin-coated iron oxide beads, sequential coloring method) is reported as 0 and the “color measurement (0-5 color scale)” value [2, 6] is reported as 0. The “color measurement (0-5 color scale)” value ([2]; Table 17, 500 nm particles, initial, before washing with water) was 0, the “color measurement (0-5 color scale)” value [2, 7] was 0 and the “color measurement (0-5 color scale)” value [2, 8] was 0. The “color measurement (0-5 color scale)” value [2, 9] was 0 and the “color measurement (0-5 color scale)” value ([2]; Table 19, 500 nm particles, after 0.25% SLES wash) was 0.

With TPPELAHTPHHLAQTRLTDRK-Biotin [Hair4] the MB50 ([1]; substrate 90% gray hair) was 0.15 µM and the MB50 ([1]; substrate Unipure Red particle) was 5 µM.

For “GSDPG-IB5A-GGGGSGGGGSG-HHHHHH (GSDPGTPPELLHGAPRSGGGGSGGGGSGHHHHHH) [HC205]”, the “Strength of binding (5 highest, 0 lowest)” value [5] was 0.
